Experimental data from the supplement of paper PMC10307832.

How the values were obtained:
Assay in all cases: relative viability (nuclei count vs DMSO), 5 days (fraction); higher = more cells survive
[1] = compound: CC(C)(C)c1nc(-c2cccc(NS(=O)(=O)c3c(F)cccc3F)c2F)c(-c2ccnc(N)n2)s1 [Dabrafenib] + CS(=O)(=O)CCNCc1ccc(-c2ccc3ncnc(Nc4ccc(OCc5cccc(F)c5)c(Cl)c4)c3c2)o1 [Lapatinib] (partner 2 µM)
Procedure, shortened: (§1)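 Medians of duplicate plates are given as relative viability. That measure is the nuclei count in treated wells divided by the count in vehicle wells. Counts were taken on 4× images of lung cancer cell lines in 1536-well plates, 5 days after pin-tool dosing the day after seeding with one drug alone or a fixed anchor-drug dose plus five library-drug doses (not always all listed) in √10 steps.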

[2] = compound: CC(C)(C)c1nc(-c2cccc(NS(=O)(=O)c3c(F)cccc3F)c2F)c(-c2ccnc(N)n2)s1 [Dabrafenib] + Cc1cc(Nc2cc(N3CCN(C)CC3)nc(Sc3ccc(NC(=O)C4CC4)cc3)n2)n[nH]1 [Tozasertib] (partner 0.1 µM)
Procedure, shortened: as §1

[3] = compound: CC(C)(C)c1nc(-c2cccc(NS(=O)(=O)c3c(F)cccc3F)c2F)c(-c2ccnc(N)n2)s1 [Dabrafenib] + O=C(c1cc(Cc2n[nH]c(=O)c3ccccc23)ccc1F)N1CCN(C(=O)C2CC2)CC1 [Olaparib] (partner 8 µM)
Procedure, shortened: as §1

[4] = compound: CC(C)(C)c1nc(-c2cccc(NS(=O)(=O)c3c(F)cccc3F)c2F)c(-c2ccnc(N)n2)s1 [Dabrafenib] + CC(C)C[C@H](NC(=O)[C@H](Cc1ccccc1)NC(=O)c1cnccn1)B(O)O [Bortezomib] (partner 0.002 µM)
Procedure, shortened: as §1

Row | Cell Line | relative viability ([1]; first compound 0.009487 µM) | relative viability ([1]; first compound 0.03 µM) | relative viability ([1]; first compound 0.09487 µM) | relative viability ([1]; first compound 0.3 µM) | relative viability ([2]; first compound 0.003 µM) | relative viability ([2]; first compound 0.009487 µM) | relative viability ([2]; first compound 0.03 µM) | relative viability ([2]; first compound 0.09487 µM) | relative viability ([2]; first compound 0.3 µM) | relative viability ([3]; first compound 0.009487 µM) | relative viability ([3]; first compound 0.03 µM) | relative viability ([3]; first compound 0.09487 µM) | relative viability ([3]; first compound 0.3 µM) | relative viability ([4]; first compound 0.003 µM) | relative viability ([4]; first compound 0.009487 µM) | relative viability ([4]; first compound 0.03 µM) | relative viability ([4]; first compound 0.09487 µM) | relative viability ([4]; first compound 0.3 µM) | relative viability ([1]; first compound 0.003 µM) | relative viability ([3]; first compound 0.003 µM)
1 | NCI-H1395 | 1.02 | 0.821 | 0.85 | 0.973 | 0.718 | 0.633 | 0.762 | 0.667 | 0.648 | 0.497 | 0.473 | 0.456 | 0.495 | – | – | – | – | – | – | –
2 | NCI-H1563 | 1.06 | 0.633 | 0.928 | 0.938 | – | – | – | – | – | – | – | – | – | 0.855 | 0.897 | 0.687 | 0.898 | 0.929 | 0.831 | –
3 | NCI-H1623 | – | – | – | – | – | 0.466 | 0.431 | 0.447 | 0.524 | – | – | – | – | – | – | – | – | – | – | –
4 | NCI-H1648 | – | – | – | – | 0.641 | 0.463 | 0.685 | 0.396 | 0.376 | 0.98 | – | 0.523 | 0.765 | – | – | – | – | – | – | 1.01
5 | NCI-H1703 | 1.6 | 0.938 | 0.896 | 1.09 | – | – | – | – | – | 0.548 | 0.326 | 0.341 | 0.395 | 0.422 | 0.496 | 0.409 | 0.28 | 0.43 | 1.2 | 0.602
6 | NCI-H1792 | 0.881 | 0.813 | 0.792 | 0.912 | – | – | – | – | – | 0.522 | 0.25 | 0.324 | 0.417 | – | 0.923 | 0.897 | 0.885 | 0.893 | – | –
7 | NCI-H1793 | 1 | 0.598 | 0.741 | 0.612 | – | 0.464 | – | – | 0.293 | 1.06 | – | 0.612 | 1.09 | – | – | – | – | – | 0.522 | –
8 | NCI-H1944 | 0.924 | 0.613 | 0.898 | 0.788 | 0.252 | 0.262 | 0.233 | 0.254 | 0.239 | 0.41 | 0.382 | 0.393 | 0.402 | – | – | – | – | – | 0.835 | 0.402
9 | NCI-H2170 | 0.265 | 0.268 | 0.291 | 0.311 | 0.805 | 0.811 | 0.632 | 0.62 | 0.727 | 0.605 | 0.544 | 0.5 | 0.625 | – | – | – | – | – | 0.263 | 0.653
10 | NCI-H2342 | – | – | – | – | 0.44 | 0.484 | 0.452 | 0.52 | 0.586 | 0.435 | 0.401 | 0.454 | 0.541 | – | – | – | – | – | – | 0.42
11 | SK-MES-1 | 0.546 | 0.525 | 0.506 | 0.598 | 0.863 | 0.874 | 0.861 | 0.811 | 0.565 | 0.671 | 0.627 | 0.567 | 0.393 | – | – | – | – | – | 0.418 | 0.582
